For 17 compounds, Activity and Drug uptake results are on record in ChEMBL document CHEMBL4706668, “Minimization of apoptosis-inducing CPP-Bim peptide” (Bioorg Med Chem Lett, 2021).

For data set [1], the system named is HeLa. The experiment in a line: Induction of apoptosis in human HeLa cells at 10 uM incubated for 3 hrs followed by compound washout by NucView-488 staining based fluorescence microscopy. The class given is functional, cell-based.
The subject of data set [2] is HeLa. The data set is described as follows: Induction of apoptosis in human HeLa cells at 2 uM incubated for 3 hrs followed by compound washout and subsequent irradiation with mercury lamp at 10J/cm2 and further incubated for 3 hrs using Alexa Fluor-546 labeled compound by fluorescence microscopy. The class given is functional, cell-based.
Data set [3] in a line: Drug distribution in cytosol of human HeLa cells at 2 uM incubated for 3 hrs followed by compound washout and subsequent irradiation with mercury lamp at 10J/cm2 using Alexa Fluor-546 labeled compound by fluorescence microscopy. The class given is ADME, subcellular.
The test system of data set [4] is CHO. The data set is described as follows: Induction of apoptosis in CHO cells at 10 uM incubated for 3 hrs followed by compound washout by NucView-488 staining based fluorescence microscopy. The conditions noted are these: chinese hamster. In kind it is cell-based, Cricetulus griseus.
The test system of data set [5] is HeLa. The data set is described as follows: Induction of apoptosis in human HeLa cells at 10 uM incubated for 3 hrs followed by compound washout by NucView-488 staining based fluorescence microscopy relative to control. In kind it is functional.
Data set [6] relates to CHO. The data set is described as follows: Induction of apoptosis in CHO cells at 10 uM incubated for 3 hrs followed by compound washout by NucView-488 staining based fluorescence microscopy relative to control. The conditions noted are these: chinese hamster. The class given is cell-based, Cricetulus griseus.

The source made the active and inactive calls. No cut-off for these calls is given here. Residues, ends and D or L forms follow the SMILES beside them.

As for H-RKKRRQRRRWIAQELRRIGDGC-OH, in data set [1], the outcome was Active.

Take H-RKKRRQRRRAQELRRIGDEFNAYYARGC-OH: the result in data set [1] was inactive.

Turning to H-RKKRRQRRRWGC-OH, the outcome in data set [2] was inactive.

In the case of H-RKKRRQRRREIWIAQELRRIGDEFNAYYARGC-OH, the Drug uptake entry in data set [3] was “Active”.

On to `CC[C@H](C)[C@H](NC(=O)[C@H](CCCNC(=N)N)NC(=O)[C@H](CCCNC(=N)N)NC(=O)[C@H](CC(C)C)NC(=O)[C@H](CCC(=O)O)NC(=O)[C@H](CS)NC(=O)[C@H](C)NC(=O)[C@@H](NC(=O)[C@H](Cc1c[nH]c2ccccc12)NC(=O)[C@@H](NC(=O)[C@H](CCCNC(=N)N)NC(=O)[C@H](CCCNC(=N)N)NC(=O)[C@H](CCCNC(=N)N)NC(=O)[C@@H](N)CCCNC(=N)N)[C@@H](C)CC)[C@@H](C)CC)C(=O)NCC(=O)N[C@@H](CC(=O)O)C(=O)N[C@@H](CCC(=O)O)C(=O)N[C@@H](Cc1ccccc1)C(=O)N[C@@H](CC(N)=O)C(=O)N[C@@H](C)C(=O)N[C@@H](Cc1ccc(O)cc1)C(=O)N[C@@H](Cc1ccc(O)cc1)C(=O)NCC(=O)N[C@@H](CS)C(=O)O` (H-RRRRIWIACELRRIGDEFNAYYGC-OH), for which the Activity entry in data set [4] was “Not Active”. In data set [1], the result was inactive.

For H-RRRRRRIWIAQELRRIGDEFNAYYGC-OH, in data set [4], the Activity result is given as “Not Active”. In data set [1], the result was inactive.

With H-RRIWIAQELRRIGDEFNAYYGC-OH, the Activity entry in data set [4] is given as “Not Active”. The outcome in data set [1] was inactive.

For the compound H-RKKRRQRRRWIAQELRRIGDEFNAYYARGC-OH, the outcome in data set [1] was Active.

Turning to H-RKKRRQRRREIWIAQELRRIGDGC-OH, in data set [1], the outcome was inactive.

Consider H-RKKRRQRRREIWIAQELRRIGDEFGC-OH, for which, in data set [1], the result was inactive.

As to H-RKKRRQRRREIWIAQELRRIGC-OH, the outcome in data set [1] was inactive.

As for H-RKKRRQRRRIWIAQELRRIGDEFNAYYGC-OH, in data set [3], the Drug uptake result is “Active”. The outcome in data set [2] was Active.

On to H-RKKRRQRRRIAQELRRIGDEFNAYYARGC-OH, for which the outcome in data set [1] was inactive.

Turning to H-RRRRRRRRIWIAQELRRIGDEFNAYYGC-OH, in data set [5], the Activity amounted to 70%. Moreover, the result in data set [1] and in data set [2] was Active. In data set [3], the Drug uptake result is “Active”.

Take H-RKKRRQRRREIWIAQELRRIGDEFNAGC-OH: in data set [1], the result was inactive.

For H-RKKRRQRRRIWIAQELRRIGDEFNAYYARGC-OH, the Activity in data set [6] stood at 31%; in data set [5], 85%.

As to H-RKKRRQRRREIWIAQELRRIGDEFNAYYGC-OH, the Activity turned out to be 44% in data set [6] and 79% in data set [5].
